Like-named read-outs stand apart in the source and are kept apart here.
Assays:
[1] = target: recombinant human delta opioid receptor (Homo sapiens (Human), UniProt P41143); details: Ki relative to nalbuphine
Procedure: (§1) Using conventional receptor binding assay techniques, several molecules were assayed to determine binding activity at kappa, mu and delta opioid subtypes of opioid receptors.
(§2) Cells were plated in 24 well plates at a density of 0.2-0.3*10^6 cells/well and washed with assay buffer containing 50 mM Tris.HCl and 5 mM MgCl2 (pH 7.4). Competition binding assays were conducted in whole cells incubated with increasing concentrations of test compounds in the presence of appropriate concentration of radioligand. 0.5 nM ^3H Naloxone, 0.5 nM ^3H Diprenorphine and 0.5 nM ^3H DPDPE were used as the competing radioligands for mu, kappa and delta receptors respectively. Incubations were carried out for two hours at room temperature using triplicate wells at each concentration. At the end of the incubation, cells were washed with 50 mM Tris HCl (pH 8.0), solubilized with NaOH and bound radioactivity was measured using a scintillation counter.
(§3) Specific binding is determined by subtraction of the cpm bound in the presence of 50-100× excess of cold ligand. Binding data assays were analyzed using GraphPad Prism 4.0 and IC50 is generated by non-linear regression from dose-response curves.

[2] = target: T1, recombinant human mu opioid receptor (Homo sapiens (Human), UniProt P35372); type: binding
Procedure: as §1, §2, §3

[3] = in vivo; details: male, Sprague-Dawley, rat, plasma, iv, 1 mg/kg
[4] = in vivo; details: male, Sprague-Dawley, rat, plasma, 5 mg/kg
[5] = Oral pharmacokinetics in Sprague-Dawley rats; details: male, rat, plasma, 5 mg/kg
[6] = target: cloned human mu opioid receptor (Homo sapiens (Human), UniProt P35372); test: cell-based
Procedure: (§4) The efficacy of the various PEG-opioid conjugates was measured by their ability to inhibit cAMP formation following receptor activation. Studies were conducted in CHO cells heterologously expressing the cloned human mu, kappa or delta opioid receptors. cAMP was measured using a cAMP HiRange homogenous time-resolved fluorescence assay (HTRF Assay), that is based on a competitive immunoassay principle (Cisbio, Cat.#62AM6PEC).
(§5) Briefly, suspensions of cells expressing either the mu, kappa or delta opioid receptors were prepared in buffer containing 0.5 mM isobutyl-methyl xanthine (IBMX). […] EC50 values were calculated for each compound from a sigmoidal dose-response plot of concentrations versus maximum response. To determine if the compounds behaved as full or partial agonists in the system, the maximal response at the highest tested concentrations of compounds were compared to that produced by a known full agonist.

[7] = Intravenous pharmacokinetics in Sprague-Dawley rats
[8] = tested on: CD-1 male mice; test: Phenylquinone writhing analgesic assay; type: in vivo, mouse; details: pretreatment 30 min before PQ
Procedure: Mice were treated according to standard protocols. Mice were given a single “pretreatment” dose of a compound lacking covalent attachment of a water-soluble, non-peptidic oligomer (i.e., non-PEG oligomer-modified parent molecule), a corresponding version comprising the compound covalently attached to a water-soluble, non-peptidic oligomer (i.e., the conjugate), or control solution (IV, SC, IP or orally) thirty minutes prior to the administration of the phenylquinone (PQ) solution. Each animal was given an IP injection of an irritant (phenylquinone, PQ) that induces “writhing” which may include: contractions of the abdomen, twisting and turning of the trunk, arching of the back, and the extension of the hindlimbs. Each animal was given an IP injection of PQ (1 mg/kg PQ, 0.1 mL/10 g bodyweight). After the injection, the animals were returned to their observation enclosure and their behavior was observed. Contractions were counted between 35 and 45 minutes after the “pretreatment”. The animals were used once. Each tested article was dosed at a range between 0.1 and 100 mg/kg (n=5-10 animals/dose).

[9] = target: T1, recombinant human mu opioid receptor; type: binding; remark: listed apart in the source
Procedure: (§6) Radioligand displacement was measured using scintillation proximity assays (SPA).
(§7) Briefly, serial dilutions of the test compounds were placed in a 96-well plate to which were added SPA beads, membrane and radioligand. The assay conditions for each opioid receptor subtype are described in Table 10 below. The plates were incubated for 8 hours-overnight at room temperature, spun at 1000 rpm to pellet the SPA beads, and radioactivity was measured using the TopCount® microplate Scintillation counter. Specific binding at each concentration of test compound was calculated by subtracting the non-specific binding measured in the presence of excess cold ligand. IC50 values were obtained by non-linear regression of specific binding versus concentration curves and Ki values were calculated using Kd values that were experimentally pre-determined for each lot of membrane preparations.

[10] = target: cloned human kappa opioid receptor (Homo sapiens (Human), UniProt P41145); type: cell-based
Procedure: as §4, §5

[11] = target: recombinant human kappa opioid receptor (Homo sapiens (Human), UniProt P41145); type: binding
Procedure: as §6, §7

[12] = inhibition of cAMP formation, 3 μM forskolin, CHO cells
[13] = male, Sprague-Dawley, rat, plasma, iv, 1 mg/kg
[14] = inhibition of cAMP formation, maximal response vs known full agonist
[15] = SPA, CHO-K1 membranes, [3H]DAMGO 6 nM
[16] = hydroxycodone series, IV 1 mg/kg, rats, Mean ± SD

Sequence of recombinant human delta opioid receptor (P41143 whole entry, looked up): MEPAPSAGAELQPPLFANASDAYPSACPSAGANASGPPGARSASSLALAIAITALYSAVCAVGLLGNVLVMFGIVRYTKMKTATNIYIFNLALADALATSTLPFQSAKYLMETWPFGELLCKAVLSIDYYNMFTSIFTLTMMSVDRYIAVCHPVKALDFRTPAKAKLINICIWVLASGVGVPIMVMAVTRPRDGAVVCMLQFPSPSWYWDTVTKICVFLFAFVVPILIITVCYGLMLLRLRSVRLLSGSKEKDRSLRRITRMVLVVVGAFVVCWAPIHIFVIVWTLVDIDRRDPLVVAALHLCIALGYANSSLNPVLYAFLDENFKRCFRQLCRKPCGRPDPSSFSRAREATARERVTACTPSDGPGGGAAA

Molecule | EC50 [6, 12] | MU OPIOID RECEPTOR % max effect [6, 14] | Ki [9, 15] | AUCall [7, 16] | AUCinf [7, 16] | CL [7, 16] | Cmax [7, 16] | MRTlast [7, 16] | T1/2(z) [7, 16] | Vss [7, 16] | EC50 [6] | MU OPIOID RECEPTOR % max effect [6] | Ki [9] | also measured
COCCOCCOCCOCCO[C@H]1CC[C@@]2(O)[C@H]3Cc4ccc(O)c5c4[C@@]2(CCN3CC2CCC2)[C@H]1O5 [6-O-mPEG4-Nalbuphine, 6-O-mPEG4-nalbuphine] |  |  |  |  |  |  |  |  |  |  |  |  |  | Fold vs Nalbuphine At DELTA [1]: 0.47; Fold vs Nalbuphine At MU [2]: 1.23
COc1ccc2c3c1O[C@H]1[C@@H](O)C=C[C@H]4[C@@H](C2)N(C)CC[C@@]341 [Codeine] |  |  |  |  |  |  |  |  |  |  |  |  |  | AUC [3]: 183 ng·h/mL; AUC(0-inf) [3]: 190 ng·h/mL; Cmax [3]: 469 ± 20.4 ng/mL; MRT last [3]: 40.2 min; Vd [3]: 4.14 ± 0.7 L/kg; clearance [3]: 89.7 ± 15.3 mL/min/kg; bioavailability ([4]; oral): 0.52%; AUC ([4]; po): 5.47 ng·h/mL; AUC(0-inf) ([4]; po): 7.18 ng·h/mL; Cmax ([4]; po): 6.24 ± 2.51 ng/mL; MRT last ([4]; po): 33.2 min; Tmax [5]: 15 min
COc1ccc2c3c1O[C@H]1C(O)CC[C@@]4(O)[C@@H](C2)N(C)CC[C@]314 (stereo partly drawn) [Hydroxycodone, α-6-hydroxycodone, reference compound] | 3.16 µM |  |  |  |  |  |  |  |  |  |  |  |  | 
COc1ccc2c3c1O[C@H]1C(=O)CC[C@@]4(O)[C@@H](C2)N(C)CC[C@]314 [Oxycodone, reference compound] |  |  |  |  |  |  |  |  |  |  |  |  |  | AUC [7, 13]: 213 ng·h/mL; AUC(0-inf) [7, 13]: 217 ng·h/mL; Cmax [7, 13]: 495 ± 56 ng/mL; MRT last [7, 13]: 37 min; clearance [7, 13]: 77.1 ± 6.26 mL/min/kg; half-life [7, 13]: 47 ± 3.99 min; Emax ([6]; CHO, read-out: MU OPIOID RECEPTOR % max effect): 95%; AUC [5]: 75.3 ng·h/mL; Cmax [5]: 25.5 ± 1.86 ng/mL; MRT last [5]: 179 min; Tmax [5]: 15 min
COCCO[C@H]1CC[C@@]2(O)[C@H]3Cc4ccc(OC)c5c4[C@@]2(CCN3C)[C@H]1O5 [α-6-mPEG1-O-Hydroxycodone, α-6-mPEG1-O-hydroxycodone] | 3.84 µM | 102% | 0.654 µM |  |  |  |  |  |  |  |  |  |  | ED50 (mPEGn-O-HydroxyCodone series) [8]: 6.064 mg/kg
COCCOCCO[C@H]1CC[C@@]2(O)[C@H]3Cc4ccc(OC)c5c4[C@@]2(CCN3C)[C@H]1O5 [α-6-mPEG2-O-Hydroxycodone, α-6-mPEG2-O-hydroxycodone] | 5 µM | 101% | 0.632 µM | 12000 ± 1610 ng·min/mL | 12200 ± 1650 ng·min/mL | 83.3 ± 10.8 mL/min/kg | 513 ± 48.8 ng/mL | 37.0 ± 2.60 min | 44.6 ± 1.80 min | 3.36 ± 0.298 L/kg |  |  |  | 
COCCOCCOCCO[C@H]1CC[C@@]2(O)[C@H]3Cc4ccc(OC)c5c4[C@@]2(CCN3C)[C@H]1O5 [α-6-mPEG3-O-Hydroxycodone, α-6-mPEG3-O-hydroxycodone] | 2.83 µM | 108% | 0.775 µM | 13800 ± 1050 ng·min/mL |  | 71.7 ± 4.99 mL/min/kg | 746 ± 2.08 ng/mL | 32.5 ± 1.92 min | 48.5 ± 7.83 min | 2.62 ± 0.206 L/kg |  |  |  | 
COCCOCCOCCOCCO[C@H]1CC[C@@]2(O)[C@H]3Cc4ccc(OC)c5c4[C@@]2(CCN3C)[C@H]1O5 [α-6-mPEG4-O-Hydroxycodone, α-6-mPEG4-O-hydroxycodone] |  |  |  |  | 11600 ± 827 ng·min/mL | 86.5 ± 6.36 mL/min/kg | 537 ± 31.0 ng/mL | 35.6 ± 2.88 min | 43.6 ± 3.27 min | 3.34 ± 0.113 L/kg | 3.71 µM | 109% | 0.893 µM | ED50 (mPEGn-O-HydroxyCodone series) [8]: 17.31 mg/kg
COCCOCCOCCOCCOCCO[C@H]1CC[C@@]2(O)[C@H]3Cc4ccc(OC)c5c4[C@@]2(CCN3C)[C@H]1O5 [α-6-mPEG5-O-Hydroxycodone, α-6-mPEG5-O-hydroxycodone] | 5.04 µM | 108% | 1.86 µM | 16900 ± 1800 ng·min/mL | 17700 ± 1990 ng·min/mL | 57.0 ± 6.07 mL/min/kg |  | 46.2 ± 1.86 min | 62.1 ± 3.85 min | 3.30 ± 0.184 L/kg |  |  |  | 
COCCOCCOCCOCCOCCOCCO[C@H]1CC[C@@]2(O)[C@H]3Cc4ccc(OC)c5c4[C@@]2(CCN3C)[C@H]1O5 [α-6-mPEG6-O-Hydroxycodone, α-6-mPEG6-O-hydroxycodone] | 12.5 µM | 102% | 1.9 µM | 12600 ± 2370 ng·min/mL | 13100 ± 2390 ng·min/mL | 77.9 ± 14.4 mL/min/kg | 445 ± 83.6 ng/mL | 47.7 ± 1.41 min | 62.2 ± 5.17 min | 4.68 ± 0.938 L/kg |  |  |  | 
COCCOCCOCCOCCOCCOCCOCCO[C@H]1CC[C@@]2(O)[C@H]3Cc4ccc(OC)c5c4[C@@]2(CCN3C)[C@H]1O5 [α-6-mPEG7-O-Hydroxycodone, α-6-mPEG7-O-oxycodone] | 7.45 µM | 101% | 1.61 µM | 14300 ± 583 ng·min/mL | 15800 ± 728 ng·min/mL | 63.3 ± 2.99 mL/min/kg | 489 ± 26.5 ng/mL | 54.3 ± 0.372 min | 87.0 ± 3.25 min | 5.31 ± 0.139 L/kg |  |  |  | 
COCCOCCOCCOCCOCCOCCOCCOCCOCCO[C@H]1CC[C@@]2(O)[C@H]3Cc4ccc(OC)c5c4[C@@]2(CCN3C)[C@H]1O5 [α-6-mPEG9-O-Hydroxycodone, α-6-mPEG9-O-hydroxycodone] |  |  |  | 16600 ± 2190 ng·min/mL | 21000 ± 4230 ng·min/mL | 48.9 ± 9.41 mL/min/kg | 955 ± 149 ng/mL | 52.7 ± 4.04 min |  | 6.35 ± 0.349 L/kg |  |  |  | mean t1/2 value as multiple of that of the parent molecule ([7]; IV 1 mg/kg, rats): 3 times
α-6-mPEG1-O-codeine |  |  |  |  |  |  |  |  |  |  | 8.57 µM | 80% | 1.82 µM | KAPPA OPIOID RECEPTOR % max effect [10]: 51%; Ki [11]: 54.7 µM
α-6-mPEG2-O-codeine |  |  |  |  |  |  |  |  |  |  | 5.15 µM | 75% | 1.38 µM | EC50 [10]: 40.1 µM; KAPPA OPIOID RECEPTOR % max effect [10]: 59%; Ki [11]: 22.6 µM
α-6-mPEG4-O-codeine |  |  |  |  |  |  |  |  |  |  | 22.1 µM | 99% | 2.89 µM | Ki [11]: 97 µM
α-6-mPEG5-O-codeine |  |  |  |  |  |  |  |  |  |  |  |  |  | KAPPA OPIOID RECEPTOR % max effect [10]: 60%; Ki [11]: 59.1 µM
α-6-mPEG6-O-codeine |  |  |  |  |  |  |  |  |  |  | 97.4 µM | 80% | 14.2 µM | KAPPA OPIOID RECEPTOR % max effect [10]: 21%; Ki [11]: > 160 µM
α-6-mPEG7-O-codeine |  |  |  |  |  |  |  |  |  |  | 44.7 µM | 75% | 9.96 µM | 
α-6-mPEG9-O-codeine |  |  |  |  |  |  |  |  |  |  | 48.2 µM | 80% | 9.98 µM | 
